Experimental findings from patent US7125990B2, “Imidazolyl derivatives as corticotropin releasing factor inhibitors” (Bristol-Myers Squibb COmpany, priority 2001, dated 2006) are described below.

Each structure is given as a SMILES string. Where only a bound is given, the exact number is not on record here.

The Ki is a dissociation constant, usually derived from enzyme kinetics or from competition with a known ligand.

The assay deals with T1, CRF1 receptors (Homo sapiens, UniProt P34998).
T1 construct: endogenous in cells; host or cells: IMR-32 cells, transformed with 2.5 µM 5'-bromo-2'-deoxyuridine for 10 days; membrane preparation
T1 sequence (P34998 24-415): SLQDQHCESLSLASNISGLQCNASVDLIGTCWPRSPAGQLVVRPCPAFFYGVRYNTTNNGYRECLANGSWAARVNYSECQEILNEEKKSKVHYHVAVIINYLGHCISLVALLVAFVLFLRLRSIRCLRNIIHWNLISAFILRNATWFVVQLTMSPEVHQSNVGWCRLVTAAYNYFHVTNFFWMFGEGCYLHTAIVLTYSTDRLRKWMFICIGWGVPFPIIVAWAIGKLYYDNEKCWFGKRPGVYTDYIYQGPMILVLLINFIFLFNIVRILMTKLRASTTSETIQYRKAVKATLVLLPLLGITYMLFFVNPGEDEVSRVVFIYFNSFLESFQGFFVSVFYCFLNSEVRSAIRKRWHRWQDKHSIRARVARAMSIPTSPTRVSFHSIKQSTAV
Description: CRF1 receptor radioligand binding assay ([125I]-oCRF competition, IMR-32 cell membranes). Particulars: IMR-32 cell membranes, [125I]-oCRF 100 pM; read-out: Ki (CRF-1R). The procedure, abridged:
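Buffer: Tris pH 7.2 with MgCl2, BSA, Triton X-100, aprotinin, leupeptin; reaction stopped with ice-cold wash and filtered. Nonspecific binding set with 10 μM oCRF.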
Consider `Cc1cc(C)c(N2CCCn3c2nc(C(F)(F)F)c3CN(CCC(F)(F)F)Cc2ccc(Cl)cc2)c(C)c1` [Example 93, (4-Chloro-benzyl)-[2-trifluoromethyl-8-(2,4,6-trimethyl-phenyl)-5,6,7,8-tetrahydro-imidazo[1,2-a]pyrimidin-3-ylmethyl]-(3,3,3-trifluoro-propyl)-amine], for which the inhibition constant (Ki) is below 0.1 µM. In the case of `C=CCN(CCC)Cc1c(C(F)(F)F)nc2n(-c3ccc(C(C)C)cc3Br)c3ccccc3n12` [Example 198, Allyl-[8-(2-bromo-4-isopropyl-phenyl)-2-trifluoromethyl-8H-1,3a,8-triaza-cyclopenta[α]inden-3-ylmethyl]-propyl-amine], the inhibition constant Ki was below 1 µM. With `Cc1cc(C)c(N2CCCn3c2nc(C(F)(F)F)c3CN2CC=CCC2)c(C)c1` [Example 60, 3-(3,6-Dihydro-2H-pyridin-1-ylmethyl)-2-trifluoromethyl-8-(2,4,6-trimethyl-phenyl)-5,6,7,8-tetrahydro-imidazo[1,2-a]pyrimidine], the Ki was below 1 µM. As to `Cc1cc(C)c(N2CCCn3c2nc(C(F)(F)F)c3CN2CCC(C)CC2)c(C)c1` [Example 64, 3-(4-Methyl-piperidin-1-ylmethyl)-2-trifluoromethyl-8-(2,4,6-trimethyl-phenyl)-5,6,7,8-tetrahydro-imidazo[1,2-a]pyrimidine], the Ki was below 1 µM. Regarding `CCCN(CC(F)(F)F)C(=O)c1c(CC)nc2n1CCN2c1c(C)cc(Cl)cc1Cl` [Example 33, 7-(2,4-Dichloro-6-methyl-phenyl)-2-ethyl-6,7-dihydro-5H-imidazo[1,2-a]imidazole-3-carboxylic acid propyl-(2,2,2-trifluoro-ethyl)-amide], the inhibitory constant (Ki) is below 0.1 µM.

For the compound `Cc1cc(C)c(-n2c3ncccc3n3c(CN(CC4CC4)CC4CC4)c(C(F)(F)F)nc23)c(C)c1` [Example 214, Bis-cyclopropylmethyl-[2-trifluoromethyl-8-(2,4,6-trimethyl-phenyl)-8H-1,3a,7,8-tetraaza-cyclopenta[α]inden-3-ylmethyl]-amine], the inhibitory constant (Ki) was below 0.1 µM. In the case of `CC(C)c1ccc(-n2c3ccccc3n3c(CN(CC4CC4)CC(F)(F)F)c(C(F)(F)F)nc23)c(Br)c1` [Example 188, [8-(2-Bromo-4-isopropyl-phenyl)-2-trifluoromethyl-8H-1,3a,8-triaza-cyclopenta[α]inden-3-ylmethyl]-cyclopropylmethyl-(2,2,2-trifluoro-ethyl)-amine], the Ki was below 0.1 µM. Then `Cc1cc(C)c(-n2c(Cl)cn3c(CN(CC4CC4)CC(F)(F)C(F)(F)F)c(C(F)(F)F)nc23)c(C)c1` [Example 318], with below 0.01 µM; and `Cc1cc(C)c(N2CCCn3c2nc(C(F)(F)F)c3CN2CCC(C)CC2)c(Cl)c1` [Example 102, 8-(2-Chloro-4,6-dimethyl-phenyl)-3-(4-methyl-piperidin-1-ylmethyl)-2-trifluoromethyl-5,6,7,8-tetrahydro-imidazo[1,2-a]pyrimidine], with below 1 µM.

For `C=CCN(CCC)Cc1c(CC)nc2n(-c3c(C)cc(C)cc3C)c3ncccc3n12` [Example 249, Allyl-[2-ethyl-8-(2,4,6-trimethyl-phenyl)-8H-1,3a,7,8-tetraaza-cyclopenta[α]inden-3-ylmethyl]-propyl-amine], the Ki is below 0.1 µM. For `CCCN(Cc1ccc(F)cc1)Cc1c(C(F)(F)F)nc2n1CCCN2c1c(C)cc(C)cc1C` [Example 92, (4-Fluoro-benzyl)-propyl-[2-trifluoromethyl-8-(2,4,6-trimethyl-phenyl)-5,6,7,8-tetrahydro-imidazo[1,2-a]pyrimidin-3-ylmethyl]-amine], the inhibition constant Ki is below 1 µM. As for `CCCN(Cc1c(C(F)(F)F)nc2n(-c3c(C)cc(C)cc3C)c3ncccc3n12)CC1CCC1` [Example 215, Cyclobutylmethyl-propyl-[2-trifluoromethyl-8-(2,4,6-trimethyl-phenyl)-8H-1,3a,7,8-tetraaza-cyclopenta[α]inden-3-ylmethyl]-amine], the Ki was below 0.1 µM. Turning to `Cc1cc(C)c(-n2c(Cl)cn3c(CN4CCCC4Cc4ccccc4)c(C(F)(F)F)nc23)c(C)c1` (stereo not shown) [Example 316, 5-(2-Benzyl-pyrrolidin-1-ylmethyl)-2-chloro-6-trifluoromethyl-1-(2,4,6-trimethyl-phenyl)-1H-imidazo[1,2-a]imidazole], the inhibition constant Ki was below 1 µM.

Consider `CCCN(CCC(F)(F)F)Cc1c(C(F)(F)F)nc2n(-c3c(C)cc(C)cc3C)c(Cl)cn12` [Example 321, [6-Chloro-2-trifluoromethyl-7-(2,4,6-trimethyl-phenyl)-7H-imidazo[1,2-a]imidazol-3-ylmethyl]-propyl-(3,3,3-trifluoro-propyl)-amine], for which the inhibitory constant (Ki) was below 0.01 µM. As for `CCCN(CC(F)(F)F)C(=O)c1c(CC)nc2n1CCN2c1c(C)cc(C)cc1C` [Example 6, 2-Ethyl-7-(2,4,6-trimethyl-phenyl)-6,7-dihydro-5H-imidazo[1,2-a]imidazole-3-carboxylic acid propyl-(2,2,2-trifluoro-ethyl)-amide], the inhibition constant (Ki) was below 0.1 µM.

As to `CCCN(CCC)Cc1c(CC)nc2n(-c3ccc(Cl)cc3Cl)c(Cl)cn12` [Example 288, 3-[(N,N-Dipropylamino)methyl]-6-chloro-2-ethyl-7-(2,4-diclorophenyl)-7H-imidazo[1,2-a]imidazole], the Ki is below 0.1 µM. On to `CCCN(CC1CC1)C(=O)c1c(CC)nc2n(-c3c(C)cc(C)cc3C)c3ccccc3n12` [Example 141, 2-Ethyl-8-(2,4,6-trimethyl-phenyl)-8H-1,3a,8-triaza-cyclopenta[a]indene-3-carboxylic acid cyclopropylmethyl-propyl-amide], for which the inhibitory constant (Ki) is below 1 µM. Then `Cc1cc(C)c(-n2c(Cl)cn3c(CN(CCC4CC4)CC(F)(F)F)c(C(F)(F)F)nc23)c(C)c1` [Example 331, [6-Chloro-2-trifluoromethyl-7-(2,4,6-trimethyl-phenyl)-7H-imidazo[1,2-a]imidazol-3-ylmethyl]-(2-cyclopropyl-ethyl)-(2,2,2-trifluoro-ethyl)-amine], with below 0.01 µM; and `CCCC(O)(CCC)c1c(CC)nc2n1CCN2c1c(C)cc(C)cc1C` [Example 47, 4-[2-Ethyl-7-(2,4,6-trimethyl-phenyl)-6,7-dihydro-5H-imidazo[1,2-a]imidazol-3-yl]-heptan-4-ol], with below 1 µM; and `Cc1cc(C)c(N2CCCn3c2nc(C(F)(F)F)c3CN(CC2CCC2)CC(F)(F)F)c(Cl)c1` [Example 112, [8-(2-Chloro-4,6-dimethyl-phenyl)-2-trifluoromethyl-5,6,7,8-tetrahydro-imidazo[1,2-a]pyrimidin-3-ylmethyl]-cyclobutylmethyl-(2,2,2-trifluoro-ethyl)-amine], with below 0.1 µM. Next, `CCCN(Cc1c(C(F)(F)F)nc2n(-c3ccc(Cl)cc3Cl)c3ccccc3n12)CC1CC1` [Example 178, Cyclopropylmethyl-[8-(2,4-dichloro-phenyl)-2-trifluoromethyl-8H-1,3a,8-triaza-cyclopenta[α]inden-3-ylmethyl]-propyl-amine]: below 1 µM; `Cc1cc(C)c(N2CCCn3c2nc(C(F)(F)F)c3CN(CCc2ccccc2)CCC(F)(F)F)c(Cl)c1` [Example 118, [8-(2-Chloro-4,6-dimethyl-phenyl)-2-trifluoromethyl-5,6,7,8-tetrahydro-imidazo[1,2-a]pyrimidin-3-ylmethyl]-phenethyl-(3,3,3-trifluoro-propyl)-amine]: below 1 µM; `Cc1cc(C)c(N2CCCn3c2nc(C)c3C(=O)N(CC2CC2)CC2CC2)c(C)c1` [Example 58, 2-Methyl-8-(2,4,6-trimethyl-phenyl)-5,6,7,8-tetrahydro-imidazo[1,2-a]pyrimidine-3-carboxylic acid bis-cyclopropylmethyl-amide]: below 10 µM.

Take `CCCN(Cc1ccc(Cl)cc1)Cc1c(C(F)(F)F)nc2n1CCCN2c1c(C)cc(C)cc1Cl` [Example 129, (4-Chloro-benzyl)-[8-(2-chloro-4,6-dimethyl-phenyl)-2-trifluoromethyl-5,6,7,8-tetrahydro-imidazo[1,2-a]pyrimidin-3-ylmethyl]-propyl-amine]: the Ki was below 1 µM. For the compound `CCN(CCc1ccccc1)Cc1c(C(F)(F)F)nc2n(-c3c(C)cc(C)cc3C)c3ccccc3n12` [Example 174, Ethyl-phenethyl-[2-trifluoromethyl-8-(2,4,6-trimethyl-phenyl)-8H-1,3a,8-triaza-cyclopenta[α]inden-3-ylmethyl]-amine], the inhibition constant (Ki) was below 10 µM. Then `CCCN(Cc1c(C)nc2n(-c3c(C)cc(C)cc3C)c(Cl)cn12)CC1CC1` [Example 284, [6-Chloro-2-methyl-7-(2,4,6-trimethyl-phenyl)-7H-imidazo[1,2-a]imidazol-3-ylmethyl]-cyclopropylmethyl-propyl-amine], with below 0.1 µM. Turning to `CCCN(CC1CCC1)C(=O)c1c(CC)nc2n1CCN2c1ccc(C(C)C)cc1Br` [Example 38, 7-(2-Bromo-4-isopropyl-phenyl)-2-ethyl-6,7-dihydro-5H-imidazo[1,2-a]imidazole-3-carboxylic acid cyclobutylmethyl-propyl-amide], the inhibition constant Ki was below 10 µM.

In the case of `CCCN(Cc1ccccc1)Cc1c(C(F)(F)F)nc2n(-c3c(C)cc(C)cc3C)c3ccccc3n12` [Example 175, Benzyl-propyl-[2-trifluoromethyl-8-(2,4,6-trimethyl-phenyl)-8H-1,3a,8-triaza-cyclopenta[α]inden-3-ylmethyl]-amine], the inhibitory constant (Ki) is below 10 µM.
